What was measured:
human orexin-1 receptor = target: T1, human orexin-1 receptor (Homo sapiens, UniProt O43613); test: Intracellular calcium measurements (FLIPR), orexin receptor antagonistic activity, OX1; type: cell-based; details: CHO cells expressing human orexin-1 receptor, 10 nM orexin-A as agonist
T1 construct: expressed in transfected cells; host or cells: CHO (Chinese hamster ovary) cells, grown under G418 selection
T1 sequence (O43613 1-425): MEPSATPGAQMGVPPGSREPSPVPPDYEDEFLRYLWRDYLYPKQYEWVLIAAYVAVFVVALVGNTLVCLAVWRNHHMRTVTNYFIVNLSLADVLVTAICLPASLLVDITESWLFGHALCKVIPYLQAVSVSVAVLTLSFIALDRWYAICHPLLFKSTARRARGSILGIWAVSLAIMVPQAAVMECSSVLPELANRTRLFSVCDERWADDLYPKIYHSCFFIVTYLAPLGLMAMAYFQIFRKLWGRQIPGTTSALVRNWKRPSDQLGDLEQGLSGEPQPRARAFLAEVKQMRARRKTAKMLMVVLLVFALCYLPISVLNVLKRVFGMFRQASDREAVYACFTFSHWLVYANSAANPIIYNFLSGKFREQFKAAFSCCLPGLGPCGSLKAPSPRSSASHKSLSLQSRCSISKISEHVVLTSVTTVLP
Method: (§1) The orexin receptor antagonistic activity of the compounds of formula (I) is determined in accordance with the following experimental method.
(§2) Intracellular Calcium Measurements:
(§3) Chinese hamster ovary (CHO) cells expressing the human orexin-1 receptor and the human orexin-2 receptor, respectively, are grown in culture medium (Ham F-12 with L-Glutamine) containing 300 μg/ml G418, 100 U/ml penicillin, 100 μg/ml streptomycin and 10% inactivated fetal calf serum (FCS). The cells are seeded at 80,000 cells/well into 96-well black clear bottom sterile plates (Costar) which have been precoated with 1% gelatine in Hanks' Balanced Salt Solution (HBSS). All reagents are from Gibco BRL. The seeded plates are incubated overnight at 37° C. in 5% CO2.
(§4) Human orexin-A as an agonist is prepared as 1 mM stock solution in MeOH: water (1:1), diluted in HBSS containing 0.1% bovine serum albumin (BSA) and 2 mM HEPES for use in the assay at a final concentration of 10 nM.
(§5) Antagonists are prepared as 10 mM stock solution in DMSO, then diluted in 96-well plates, first in DMSO, then in HBSS containing 0.1% bovine serum albumin (BSA) and 2 mM HEPES.
(§6) On the day of the assay, 100 μl of loading medium (HBSS containing 1% FCS, 2 mM HEPES, 5 mM probenecid (Sigma) and 3 μM of the fluorescent calcium indicator fluo-3 AM (1 mM stock solution in DMSO with 10% pluronic acid) (Molecular Probes) is added to each well.
(§7) The 96-well plates are incubated for 60 min at 37° C. in 5% CO2. The loading solution is then aspirated and cells are washed 3 times with 200 μl HBSS containing 2.5 mM probenecid, 0.1% BSA, 2 mM HEPES. 100 μl of that same buffer is left in each well.
(§8) Within the Fluorescent Imaging Plate Reader (FLIPR, Molecular Devices), antagonists are added to the plate in a volume of 50 μl, incubated for 20 min and finally 100 μl of agonist is added. Fluorescence is measured for each well at 1 second intervals, and the height of each fluorescence peak is compared to the height of the fluorescence peak induced by 10 nM orexin-A with buffer in place of antagonist.

human orexin-2 receptor = target: T2, human orexin-2 receptor (Homo sapiens, UniProt O43614); test: Intracellular calcium measurements (FLIPR), orexin receptor antagonistic activity, OX2; type: cell-based; details: CHO cells expressing human orexin-2 receptor, 10 nM orexin-A as agonist
T2 construct: expressed in transfected cells; host or cells: CHO (Chinese hamster ovary) cells, grown under G418 selection
T2 sequence (O43614 1-444): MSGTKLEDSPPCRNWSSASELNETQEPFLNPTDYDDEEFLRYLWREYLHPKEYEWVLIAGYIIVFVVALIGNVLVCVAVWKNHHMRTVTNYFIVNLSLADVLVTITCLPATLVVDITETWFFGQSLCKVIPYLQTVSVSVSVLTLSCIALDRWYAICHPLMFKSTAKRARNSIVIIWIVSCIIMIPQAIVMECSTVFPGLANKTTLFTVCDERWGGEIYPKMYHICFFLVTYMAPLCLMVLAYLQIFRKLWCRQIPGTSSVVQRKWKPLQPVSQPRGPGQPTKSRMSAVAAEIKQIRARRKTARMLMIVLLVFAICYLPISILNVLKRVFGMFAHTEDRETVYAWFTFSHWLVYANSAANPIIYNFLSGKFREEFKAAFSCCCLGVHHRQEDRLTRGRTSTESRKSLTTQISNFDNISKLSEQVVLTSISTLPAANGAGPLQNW
Method: as §1, §2, §3, §4, §5, §6, §7, §8

## Cc1ccc(C(=O)N2C[C@H]3C[C@H]3[C@H]2CNC(=O)c2cccc3c2OCCO3)c(C#CC2CC2)c1 (racemic) [Example 379, 2,3-Dihydro-benzo[1,4]dioxine-5-carboxylic acid [(1R*,2S*,5S*)-3-(2-cyclopropylethynyl-4-methyl-benzoyl)-3-aza-bicyclo[3.1.0]hex-2-ylmethyl]-amide]
Human orexin-1 receptor
  IC50: 373 nM
Human orexin-2 receptor
  IC50: 61 nM

## Cc1ccc(C(=O)N2C[C@H]3C[C@H]3[C@H]2CNC(=O)c2c3c(cc4c2OCC4)OCC3)c(-c2cccc(F)c2)c1 (relative stereo) [Compound 318]
Human orexin-1 receptor
  IC50: 196 nM
Human orexin-2 receptor
  IC50: 114 nM

## Cc1nc2sccn2c1C(=O)NC[C@@H]1[C@@H]2C[C@@H]2CN1S(=O)(=O)c1ccccc1OC(F)(F)F (relative stereo) [Example 3, 6-methyl-imidazo[2,1-b]thiazole-5-carboxylic acid [(1R*,2S*,5S*)-3-(2-trifluoromethoxy-benzenesulfonyl)-3-aza-bicyclo[3.1.0]hex-2-ylmethyl]-amide]
Human orexin-1 receptor
  IC50: 158 nM
Human orexin-2 receptor
  IC50: 348 nM

## Cc1nc(C(=O)N2C[C@H]3C[C@H]3[C@H]2CNC(=O)c2ccc(F)cc2)c(-c2cccc(F)c2)s1 (relative stereo) [Example 8, 4-fluoro-N-{[(1R*,2S*,5S*)-3-[5-(3-fluoro-phenyl)-2-methyl-thiazole-4-carbonyl]-3-aza-bicyclo[3.1.0]hex-2-ylmethyl}-benzamide]
Human orexin-1 receptor
  IC50: 994 nM
Human orexin-2 receptor
  IC50: 96 nM

## CCc1ccc(-c2sc(C)nc2C(=O)N2C[C@H]3C[C@H]3[C@H]2CNC(=O)c2cccc3occc23)cc1 (relative stereo) [Example 16, benzofuran-4-carboxylic acid {(1R*,2S*,5S*)-3-[5-(4-ethyl-phenyl}2-methyl-thiazole-4-carbonyl]-3-aza-bicyclo[3.1.0]hex-2-ylmethyl}-amide]
Human orexin-1 receptor
  IC50: 143 nM
Human orexin-2 receptor
  IC50: 33 nM

## Nc1nc(-c2ccccc2C(=O)N2C[C@H]3C[C@H]3[C@H]2CNC(=O)c2cccc3occc23)cs1 (relative stereo) [Example 30, benzofuran-4-carboxylic acid {(1R*,2S*,5S*)-3-[2-(2-amino-thiazol-4-yl)benzoyl]-3-aza-bicyclo[3.1.0]hex-2-ylmethyl}-amide]
Human orexin-1 receptor
  IC50: 1210 nM
Human orexin-2 receptor
  IC50: 32 nM

## O=C(NC[C@@H]1[C@@H]2C[C@@H]2CN1C(=O)c1cccc2c1-c1ccccc1C2)c1cccc2occc12 (relative stereo) [Example 31, benzofuran-4-carboxylic acid [(1R*,2S*,5S*)-3-(9H-fluorene-4-carbonyl)-3-aza-bicyclo[3.1.0]hex-2-ylmethyl]-amide]
Human orexin-1 receptor
  IC50: 240 nM
Human orexin-2 receptor
  IC50: 51 nM

## O=C(NC[C@@H]1[C@@H]2C[C@@H]2CN1C(=O)c1nccnc1-c1ccccc1)c1cccc2occc12 (relative stereo) [Example 32, benzofuran-4-carboxylic acid [(1R*,2S*,5S*)-3-(3-phenyl-pyrazine-2-carbonyl)-3-aza-bicyclo[3.1.0]hex-2-ylmethyl]-amide]
Human orexin-1 receptor
  IC50: 2960 nM
Human orexin-2 receptor
  IC50: 91 nM

## COc1ccc(-c2ocnc2C(=O)N2C[C@H]3C[C@H]3[C@H]2CNC(=O)c2cccc3occc23)cc1 (relative stereo) [Example 33, benzofuran-4-carboxylic acid {(1R*,2S*,5S*)-3-[5-(4-methoxy-phenyl)-oxazole-4-carbonyl]-3-aza-bicyclo[3.1.0]hex-2-ylmethyl}-amide]
Human orexin-1 receptor
  IC50: 2170 nM
Human orexin-2 receptor
  IC50: 94 nM

## O=C(NC[C@@H]1[C@@H]2C[C@@H]2CN1C(=O)c1ccccc1-c1ccc(Cl)cc1)c1cccc2occc12 (relative stereo) [Example 42, benzofuran-4-carboxylic acid [(1R*,2S*,5S*)-3-(4′-chloro-biphenyl-2-carbonyl)-3-aza-bicyclo[3.1.0]hex-2-ylmethyl]-amide]
Human orexin-1 receptor
  IC50: 237 nM
Human orexin-2 receptor
  IC50: 50 nM

## Cc1nc(C(=O)N2C[C@H]3C[C@H]3[C@H]2CNc2cnc3cc(F)c(F)cc3n2)c(-c2ccc(F)cc2)s1 (relative stereo) [Example 60, {(1R*,2S*,5S*)-2-[(6,7-difluoro-quinoxalin-2-ylamino)-methyl]-3-aza-bicyclo[3.1.0]hex-3-yl}-[5-(4-fluoro-phenyl)-2-methyl-thiazol-4-yl]-methanone]
Human orexin-1 receptor
  IC50: 596 nM
Human orexin-2 receptor
  IC50: 76 nM

## O=C(c1ccccc1-c1ccccc1)N1C[C@H]2C[C@H]2[C@H]1CNc1ncc(Br)cn1 (relative stereo) [Example 64, biphenyl-2-yl-{(1R*,2S*,5S*)-2-[(5-bromo-pyrimidin-2-ylamino)methyl]-3-aza-bicyclo[3.1.0]hex-3-yl}-methanone]
Human orexin-1 receptor
  IC50: 162 nM
Human orexin-2 receptor
  IC50: 242 nM

## Cc1cccc(-c2sc(C)nc2C(=O)N2C[C@H]3C[C@H]3[C@H]2CNC(=O)c2sc(Br)nc2C)c1 (relative stereo) [Example 74, 2-bromo-4-methyl-thiazole-5-carboxylic acid [(1R*,2S*,5S*)-3-(2-methyl-5-m-tolyl-thiazole-4-carbonyl)-3-aza-bicyclo[3.1.0]hex-2-ylmethyl]-amide]
Human orexin-1 receptor
  IC50: 99 nM
Human orexin-2 receptor
  IC50: 16 nM

## Cc1cccc(-c2sc(C)nc2C(=O)N2C[C@H]3C[C@H]3[C@H]2CNC(=O)c2sc(C)nc2C)c1 (relative stereo) [Example 82, 2,4-dimethyl-thiazole-5-carboxylic acid [(1R*,2S*,5S*)-3-(2-methyl-5-m-tolyl-thiazole-4-carbonyl)-3-aza-bicyclo[3.1.0]hex-2-ylmethyl]-amide]
Human orexin-1 receptor
  IC50: 864 nM
Human orexin-2 receptor
  IC50: 50 nM

## Cc1cccc(-c2sc(C)nc2C(=O)N2C[C@H]3C[C@H]3[C@H]2CNC(=O)c2cnc(CC(C)C)c(C)c2)c1 (relative stereo) [Example 100, 6-isobutyl-5-methyl-N-[(1R*,2S*,5S*)-3-(2-methyl-5-m-tolyl-thiazole-4-carbonyl)-3-aza-bicyclo[3.1.0]hex-2-ylmethyl]-nicotinamide]
Human orexin-1 receptor
  IC50: 1300 nM
Human orexin-2 receptor
  IC50: 80 nM

## Cc1cccc(-c2sc(C)nc2C(=O)N2C[C@H]3C[C@H]3[C@H]2CNC(=O)c2cccc3c2OC(C)(C)C3)c1 (relative stereo) [Example 108, 2,2-Dimethyl-2,3-dihydro-benzofuran-7-carboxylic acid [(1R*,2S*,5S*)-3-(2-methyl-5-m-tolyl-thiazole-4-carbonyl)-3-aza-bicyclo[3.1.0]hex-2-ylmethyl]-amide]
Human orexin-1 receptor
  IC50: 131 nM
Human orexin-2 receptor
  IC50: 101 nM

## Cc1cccc(-c2sc(C)nc2C(=O)N2C[C@H]3C[C@H]3[C@H]2CNC(=O)c2cn(C)c3ccccc23)c1 (relative stereo) [Example 114, 1-Methyl-1H-indole-3-carboxylic acid [(1R*,2S*,5S*)-3-(2-methyl-5-m-tolyl-thiazole-4-carbonyl)-3-aza-bicyclo[3.1.0]hex-2-ylmethyl]-amide]
Human orexin-1 receptor
  IC50: 93 nM
Human orexin-2 receptor
  IC50: 124 nM

## Cc1cccc(-c2sc(C)nc2C(=O)N2C[C@H]3C[C@H]3[C@H]2CNC(=O)c2cccc(C(F)(F)F)c2)c1 (relative stereo) [Example 125, N-[(1R*,2S*,5S*)-3-(2-Methyl-5-m-tolyl-thiazole-4-carbonyl)-3-aza-bicyclo[3.1.0]hex-2-ylmethyl]-3-trifluoromethyl-benzamide]
Human orexin-1 receptor
  IC50: 98 nM
Human orexin-2 receptor
  IC50: 102 nM

— patent publication US20100016401A1, “3-AZA-BICYCLO[3.1.0]HEXANE DERIVATIVES” (Actelion Phamaceuticals Ltd., priority 2006, published 2010)
